The source of these data is publication PMC6993587, “Detection of EXP1-Specific CD4+ T Cell Responses Directed Against a Broad Range of Epitopes Including Two Promiscuous MHC Class II Binders During Acute Plasmodium falciparum Malaria” (Frontiers in Immunology, 2020).

pIC50: −log10 of the molar value. Ends that are not written are not given here.

The target in one assay is HLA-DR DRB1*01:01 (Homo sapiens, UniProt P01903+P01911, A100R/D57E/F55L/F60I/F76Y/I96L/L162R/M171V/P40L/Q125E/R42F/V115G/Y59C). Briefly: In vitro HLA binding assay with purified HLA-DR molecules. To be noted: purified HLA-DR molecule; high affinity binding = IC50 <1,000 nM. On the procedure: (§1) In vitro binding assays with 14 of the peptides that elicited a response were performed using purified HLA-DR molecules, as previously described (Table 3) ([37]). MHC class II in silico binding predictions were defined, using the IEDB analysis resource ([38]–[40]), combining predictions from the ANN ([41], [42]) and SMM ([43]) algorithms (Supplementary Table 2A).
(§2) To test this hypothesis, we measured the in vitro capacity of the most frequently recognized EXP1 peptides to bind to a panel of 17 of the most prevalent human HLA-DR molecules, since the majority of HLA class II restricted CD4+ T cell responses are presented by these molecules ([49], [50]). Peptides with an IC50 of 1,000 nM or lower, a threshold previously found associated with the vast majority of HLA class II-restricted T cell epitopes, were considered binders to the respective DR molecule ([51]–[53]). […] These include EXP1-P14 which bound to five, EXP1-P15 to 13, EXP1-P16 to 10 and EXP1-P17 to nine different HLA molecules (Table 3).

In the next assay the target is HLA-DR DRB1*13:01 (Homo sapiens, UniProt P01903+P01911, A100E/A169T/K41T/L162R/M171V/P40S/Q125H/Q178H/Q39Y/Q99D/R42S/S66N/T262R/W38E/Y61H). Described as above. The settings on record: purified HLA-DR molecule; high affinity binding = IC50 <1,000 nM. On the procedure: as §1, §2
The target in a further assay is HLA-DR DRB1*04:04 (Homo sapiens, UniProt P01903+P01911, A100R/A169T/F76Y/I96L/K127E/L162R/M171V/N62H/P40V/Q125Y/R42H/S133A/S149N/S66Y/V209L/W38E). The description is as above. To be noted: purified HLA-DR molecule; high affinity binding = IC50 <1,000 nM. On the procedure:
as §1, §2

The target of another assay is HLA-DR DRB5*01:01 (Homo sapiens, UniProt P01903+Q30154). The assay is described as above. To be noted: purified HLA-DR molecule; high affinity binding = IC50 <1,000 nM. On the procedure:
as §1, §2

The target of another assay is HLA-DR DRB4*01:01 (Homo sapiens, UniProt P01903+P13762, G164S). The description is as above. To be noted: purified HLA-DR molecule; high affinity binding = IC50 <1,000 nM. On the procedure:
as §1, §2

Another assay deals with HLA-DR DRB1*13:02 (Homo sapiens, UniProt P01903+P01911, A100E/A169T/K41T/L162R/M171V/P40S/Q125H/Q178H/Q39Y/Q99D/R42S/S66N/T262R/V115G/W38E/Y61H). The description is as above. To be noted: purified HLA-DR molecule; high affinity binding = IC50 <1,000 nM. On the procedure: as §1, §2
Chain of HLA-DR DRB1*13:02 (P01903 26-254 limits assumed, other chains not shown): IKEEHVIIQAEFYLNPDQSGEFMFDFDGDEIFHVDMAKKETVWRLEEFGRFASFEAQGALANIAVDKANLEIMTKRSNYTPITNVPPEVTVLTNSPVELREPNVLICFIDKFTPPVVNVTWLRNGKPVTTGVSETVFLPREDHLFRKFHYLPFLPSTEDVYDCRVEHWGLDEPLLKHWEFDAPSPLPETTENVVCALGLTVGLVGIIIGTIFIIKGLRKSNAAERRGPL
For another assay, the target named is HLA-DR DRB1*04:05 (Homo sapiens, UniProt P01903+P01911, A100R/A169T/D86S/F76Y/I96L/K127E/L162R/M171V/N62H/P40V/Q125Y/R42H/S133A/S149N/S66Y/V115G/V209L/W38E). The description is as above. The settings on record: purified HLA-DR molecule; high affinity binding = IC50 <1,000 nM. On the procedure: as §1, §2
Another assay deals with HLA-DR DRB1*10:01 (Homo sapiens, UniProt P01903+P01911, A100R/A169T/D57E/F55L/F60V/F69Y/F76Y/I96L/L162R/M171V/P40V/Q260P/Q39E/Q99R/R195Q/R42F/S149N/S66Y/T210M/V115G/V67A/W38E/Y59R/Y61H). The assay is described as above. The settings on record: purified HLA-DR molecule; high affinity binding = IC50 <1,000 nM. The protocol: as §1, §2
The next assay addresses HLA-DR DRB1*08:02 (Homo sapiens, UniProt P01903+P01911, A100R/A103L/A169T/F76Y/H45Y/I96F/K41T/L162R/M171V/P40S/Q125H/Q178H/Q39Y/Q99D/R218S/R42G/S66Y/V115G/W38E). Described as above. To be noted: purified HLA-DR molecule; high affinity binding = IC50 <1,000 nM. The protocol:
as §1, §2

The target in the next assay is HLA-DR DRB1*03:01 (Homo sapiens, UniProt P01903+P01911, A100K/A102G/A103R/A169T/F55Y/I96L/K41T/L162R/M171V/P40S/Q125H/Q178H/Q39Y/R42S/S66N/T106N/T262R/W38E/Y61H). Described as above. The settings on record: purified HLA-DR molecule; high affinity binding = IC50 <1,000 nM. On the procedure:
as §1, §2

A further assay concerns the target HLA-DR DRB1*11:01 (Homo sapiens, UniProt P01903+P01911, A100R/A169T/A87E/I96F/K41T/L162R/M171V/P40S/Q125H/Q178H/Q39Y/Q99D/R42S/S66Y/T262R/V115G/W38E). The assay is described as above. The settings on record: purified HLA-DR molecule; high affinity binding = IC50 <1,000 nM. The protocol:
as §1, §2

The next assay has as its target HLA-DR DRB1*15:01 (Homo sapiens, UniProt P01903+P01911). The description is as above. To be noted: purified HLA-DR molecule; high affinity binding = IC50 <1,000 nM. On the procedure:
as §1, §2

Another assay addresses HLA-DR DRB3*02:02 (Homo sapiens, UniProt P01903+P79483, A212P/D57E/F66Y/L67A/R103Q/R218S/R40L/S89Y/T80R/V86D/Y55F/Y59H). Described as above. The settings on record: purified HLA-DR molecule; high affinity binding = IC50 <1,000 nM. The protocol:
as §1, §2

The target of another assay is HLA-DR DRB1*04:01 (Homo sapiens, UniProt P01903+P01911, A100K/A169T/F76Y/I96L/K127E/L162R/M171V/N62H/P40V/Q125Y/R42H/S133A/S149N/S66Y/V115G/V209L/W38E). The assay is described as above. To be noted: purified HLA-DR molecule; high affinity binding = IC50 <1,000 nM. On the procedure: as §1, §2
Assay [1] deals with CD8+ T cells (PBMCs of malaria patients). Briefly: EXP1-specific CD8+ T cell response, ICS for IFNγ after in vitro culture. The settings on record: patients HH-16, HH-18, HH-20 and HH-25; coincided with a CD4+ T cell response against the same peptide. Type of assay: cell-based, human. The protocol:
Cryopreserved PBMCs were thawed and cultivated at 1–5 × 10^6 cells/ml for optimal results in 500 μl of R10 medium (RPMI 1640 medium with 10% FCS (Sigma Aldrich), 1% HEPES buffer and 1% Penicillin-Streptomycin). PBMCs were stimulated with EXP1 peptide pool 1 [EXP1 peptide 1-10 (EXP1-P01-10)], pool 2 (EXP1-P11-20) or pool 3 (EXP1-P21-31) (Table 2) at a final concentration of 10 μg/ml, together with 1 μg/ml of anti-CD28 and anti-CD49d antibodies [BD FastImmune™, clone: L293 (CD28) and clone: L25 (CD49d)] for 14 days. Medium with recombinant IL-2 (50 U/ml) was added when necessary. After 14 days, cells were re-stimulated with single EXP1-peptides (final concentration 10 μg/ml) and then assayed for interferon-γ (IFNγ) production by ELISPOT and intracellular cytokine staining (ICS) as previously described ([28]).
ICS was performed as previously described ([26], [28]). 5 × 10^5 PBMCs were stimulated with the corresponding EXP1 peptide at a final concentration of 10 μg/ml before blocking the secretion with 10 μg/ml Brefeldin A (Sigma Aldrich) 1 h after stimulation. […] Cells were then analyzed on a BD LSRFortessa (BD Bioscience). […]

A further assay has as its target HLA-DR DRB3*01:01 (Homo sapiens, UniProt P01903+P79483). Briefly: In vitro HLA binding assay with purified HLA-DR molecules. The settings on record: purified HLA-DR molecule; high affinity binding = IC50 <1,000 nM. On the procedure:
as §1, §2

In a further assay the target is HLA-DR DRB1*07:01 (Homo sapiens, UniProt P01903+P01911, A100R/A102G/A103Q/D57E/D86V/E43K/F76Y/K127E/L162R/M171V/P40G/Q125H/Q99D/R33Q/R42Y/R54Q/S133A/S66F/T210M/V115G/Y107V/Y59L/Y89S). The description is as above. To be noted: purified HLA-DR molecule; high affinity binding = IC50 <1,000 nM. On the procedure:
as §1, §2

The target in the next assay is HLA-DR DRB1*09:01 (Homo sapiens, UniProt P01903+P01911, A100R/A103E/D57H/D86V/F55Y/F60I/F76Y/I96F/K127E/L162R/M171V/P40D/Q125H/Q99R/R33Q/R42F/S133A/S66N/T210M/V115G/W38K/Y107V/Y59G/Y89S). The assay is described as above.

Chain of HLA-DR DRB1*11:01 (P01903 26-254 limits assumed, other chains not shown): as above
Chain of HLA-DR DRB3*02:02 (P01903 26-254 limits assumed): as the sequence (P01903 26-254 limits assumed, other chains not shown) above
Chain of HLA-DR DRB3*02:02 (P79483 30-266 R40L/Y55F/D57E/Y59H/F66Y/L67A/T80R/V86D/S89Y/R103Q/A212P/R218S limits assumed): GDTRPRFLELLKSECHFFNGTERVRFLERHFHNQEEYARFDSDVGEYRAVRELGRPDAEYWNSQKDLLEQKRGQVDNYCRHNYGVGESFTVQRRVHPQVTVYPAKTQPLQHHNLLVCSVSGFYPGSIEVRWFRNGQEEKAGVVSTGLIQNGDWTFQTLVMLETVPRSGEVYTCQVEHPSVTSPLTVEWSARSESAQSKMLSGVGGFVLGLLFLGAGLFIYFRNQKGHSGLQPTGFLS
Chain of HLA-DR DRB1*03:01 (P01903 26-254, other chains not shown): as the sequence (P01903 26-254 limits assumed, other chains not shown) above

Consider GVGLVLYNTEKGRHP [EXP1-P20], for which the negative logarithm of the IC50 (pIC50) at HLA-DR DRB1*01:01 is 5.05; on HLA-DR DRB1*13:01, 6.91; on HLA-DR DRB1*04:04 it was 8.04; at HLA-DR DRB5*01:01, 6.27; at HLA-DR DRB4*01:01, 7.09; at HLA-DR DRB1*13:02 it was 4.77. Besides, the pIC50 at HLA-DR DRB1*04:05 is 5.53; on HLA-DR DRB1*10:01, 5.10; on HLA-DR DRB1*08:02 it was 8.03; at HLA-DR DRB1*03:01 it was 5.35; at HLA-DR DRB1*11:01 it was 6.74; on HLA-DR DRB1*15:01 it was 7.62. The pIC50 is 5.30 at HLA-DR DRB3*02:02 and 7.59 at HLA-DR DRB1*04:01.

As to “KKGSGEPLIDVHDLI [EXP1-P09, overlapping peptide of P. falciparum EXP1, aa 40–54]”, the “CD8+ T cell response” value in assay [1] is listed as “CD8+ T cell response”.

On to RKSKYKLATSVLAGLL [EXP1-P15], for which the pIC50 at HLA-DR DRB1*01:01 was 8.96; at HLA-DR DRB1*04:04 it was 7.32; at HLA-DR DRB5*01:01, 9.00; at HLA-DR DRB4*01:01, 6.64; at HLA-DR DRB3*01:01 it was 7.33; at HLA-DR DRB1*13:02, 4.41. In addition, the pIC50 at HLA-DR DRB1*04:05 was 8.13; at HLA-DR DRB1*10:01, 8.74; at HLA-DR DRB1*08:02 it was 4.92; at HLA-DR DRB1*03:01, 5.23; on HLA-DR DRB1*11:01 it was 8.15; on HLA-DR DRB1*15:01, 6.71. Further, the pIC50 at HLA-DR DRB3*02:02 is 8.70; on HLA-DR DRB1*04:01, 8.92; on HLA-DR DRB1*07:01 it was 8.85; on HLA-DR DRB1*09:01 it was 8.41.

As to VLAGLLGVVSTVLLGGV [EXP1-P17], the pIC50 at HLA-DR DRB1*01:01 is 7.64; on HLA-DR DRB1*13:01, 4.85; at HLA-DR DRB1*04:04, 7.33; on HLA-DR DRB5*01:01 it was 6.62; at HLA-DR DRB4*01:01, 5.62; on HLA-DR DRB3*01:01, 4.55. The pIC50 was 4.48 at HLA-DR DRB1*13:02; 6.08 on HLA-DR DRB1*04:05; 6.38 at HLA-DR DRB1*10:01; 7.31 on HLA-DR DRB1*08:02; 4.86 on HLA-DR DRB1*11:01; 8.30 on HLA-DR DRB1*15:01. The pIC50 at HLA-DR DRB3*02:02 is 4.83; at HLA-DR DRB1*04:01, 5.90; on HLA-DR DRB1*07:01, 8.34; on HLA-DR DRB1*09:01, 7.92.
